Results as given in US9994558B2, “Multicyclic compounds and methods of using same” (Karyopharm Therapeutics Inc., priority 2013, dated 2018).
pIC50: −log10 of the molar value.

Tests used:
Format in all cases: cell-based
[1] = system: Z138 cells; assay: MTT cell proliferation assay, Z138 cells; conditions: Homo sapiens, Z-138, incubation approximately 64-72 hours
Protocol: (§1) The MTT cell proliferation assay was used to study the cytotoxic properties of the compounds. The assay was performed according to the method described by Roche Molecular Biochemicals, with minor modifications. The assay is based on the cleavage of the tetrazolium salt, MTT, in the presence of an electron-coupling reagent. The water-insoluble formazan salt produced must be solubilized in an additional step. Cells grown in a 96-well tissue culture plate were incubated with the MTT solution for approximately 4 hours. After this incubation period, a water-insoluble formazan dye formed. After solubilization, the formazan dye was quantitated using a scanning multi-well spectrophotometer (ELISA reader). […] The cells were seeded at 5,000-10,000 cells in each well of 96-well plate in 100 μL of fresh culture medium and were allowed to attach overnight. The stock solutions of the compounds were diluted in 100 μL cell culture medium to obtain eight concentrations of each test compound, ranging from 1 nM to 30 μM. […] All optical densities were measured at 490 nm using a Vmax Kinetic Microplate Reader (Molecular Devices). In most cases, the assay was performed in duplicate and the results were presented as a mean percent inhibition to the negative control±SE. The following formula was used to calculate the percent of inhibition. Inhibition (%)=(1−(ODo/OD))×100.
(§2) The compounds were tested against MS751, Z138 and 3T3 cells. The MS751 cell line is derived from a metastasis to lymph node of human cervix from a patient diagnosed with squameous cell carcinoma of the cervix. The […] cell line is a mature B-cell acute lymphoblastic leukemia cell line derived from a patient with chronic lymphocytic leukemia. 3T3 cells are standard fibroblast cells; they were originally isolated from Swiss mouse embryo tissue.

[2] = system: MS751 cells; assay: MTT cell proliferation assay, MS751 cells; conditions: Homo sapiens, incubation approximately 64-72 hours
Protocol: as §1, §2

[3] = system: 3T3 cells; assay: MTT cell proliferation assay, 3T3 cells; conditions: Mus musculus, NIH3T3; 3T3 fibroblast cells; incubation approximately 64-72 hours
Protocol: as §1, §2

SMILES	pIC50 [1]	pIC50 [2]	pIC50 [3]
Nc1ccc(/C=C/C(=O)NCCOc2ccc(-c3ccc(C(=O)N4CCCCC4)cc3)cc2Cl)cn1 [Compound 329, (E)-3-(6-aminopyridin-3-yl)-N-(2-(3-chloro-4′-(piperidine-1-carbonyl)biphenyl-4-yloxy)ethyl)acrylamide]	> 7.00	> 7.00	< 5.00
CC(=O)c1ccc(-c2ccc(OCCNC(=O)/C=C/c3ccc(N)nc3)c(Cl)n2)s1 [Compound 330, (E)-N-(2-(6-(5-acetylthiophen-2-yl)-2-chloropyridin-3-yloxy)ethyl)-3-(6-aminopyridin-3-yl)acrylamide]	5.30 to 7.00	5.30 to 7.00	< 5.00
CC(=O)c1ccc(-c2cnc(OCCNC(=O)/C=C/c3ccc(N)nc3)c(Cl)c2)s1 [Compound 331, (E)-N-(2-(5-(5-acetylthiophen-2-yl)-3-chloropyridin-2-yloxy)ethyl)-3-(6-aminopyridin-3-yl)acrylamide]	< 5.00	< 5.00	< 5.00
Nc1ccc(/C=C/C(=O)NCCOc2cc(Cl)cc(-c3ccc(C(=O)N4CC(F)(F)C4)cc3)c2)cn1 [Compound 332, (E)-3-(6-aminopyridin-3-yl)-N-(2-(5-chloro-4′-(3,3-difluoroazetidine-1-carbonyl)biphenyl-3-yloxy)ethyl)acrylamide]	> 7.00	> 7.00	5.30 to 7.00
CC(C)(CNC(=O)/C=C/c1ccc(N)nc1)Oc1ccc(-c2ccc(C(=O)N3CC(F)(F)C3)cc2)cc1Cl [Compound 333, (E)-3-(6-aminopyridin-3-yl)-N-(2-(3-chloro-4′-(3,3-difluoroazetidine-1-carbonyl)biphenyl-4-yloxy)-2-methylpropyl)acrylamide]	5.30 to 7.00	5.30 to 7.00	< 5.00
CN(CCOc1ccc(-c2ccc(C(=O)N3CC(F)(F)C3)cc2)cc1Cl)C(=O)/C=C/c1ccc(N)nc1 [Compound 334, (E)-3-(6-aminopyridin-3-yl)-N-(2-(3-chloro-4′-(3,3-difluoroazetidine-1-carbonyl)biphenyl-4-yloxy)ethyl)-N-methylacrylamide]	> 7.00	5.30 to 7.00	5.00 to 5.30
CC1(C)COCCN1C(=O)c1ccc(-c2ccc(OCCNC(=O)/C=C/c3ccc(N)nc3)c(Cl)c2)cc1 [Compound 335, (E)-3-(6-aminopyridin-3-yl)-N-(2-(3-chloro-4′-(3,3-dimethylmorpholine-4-carbonyl)biphenyl-4-yloxy)ethyl)acrylamide]	> 7.00	> 7.00	5.30 to 7.00
Nc1ccc(/C=C/C(=O)NCCCOc2ccc(-c3ccc(C(=O)N4CC(F)(F)C4)cc3)cc2Cl)cn1 [Compound 336, (E)-3-(6-aminopyridin-3-yl)-N-(3-(3-chloro-4′-(3,3-difluoroazetidine-1-carbonyl)biphenyl-4-yloxy)propyl)acrylamide]	> 7.00	> 7.00	5.30 to 7.00
Nc1ccc(/C=C/C(=O)NCCS(=O)(=O)c2ccc(-c3ccc(C(=O)N4CC(F)(F)C4)cc3)cc2Cl)cn1 [Compound 337, (E)-3-(6-aminopyridin-3-yl)-N-(2-(3-chloro-4′-(3,3-difluoroazetidine-1-carbonyl)biphenyl-4-ylsulfonyl)ethyl)acrylamide]	< 5.00	< 5.00	< 5.00
Nc1ccc(/C=C/C(=O)NCCOc2ccc(-c3ccc(C(=O)N4CC(F)(F)C4)cc3)cc2C(F)(F)F)cn1 [Compound 338, (E)-3-(6-aminopyridin-3-yl)-N-(2-(4′-(3,3-difluoroazetidine-1-carbonyl)-3-(trifluoromethyl)biphenyl-4-yloxy)ethyl)acrylamide]	> 7.00	> 7.00	> 7.00
Nc1ccc(/C=C/C(=O)NCCOc2ccc(-c3ccc(C(=O)N4CCOCC4)cc3)cc2C(F)(F)F)cn1 [Compound 339, (E)-3-(6-aminopyridin-3-yl)-N-(2-(4′-(morpholine-4-carbonyl)-3-(trifluoromethyl)biphenyl-4-yloxy)ethyl)acrylamide]	> 7.00	> 7.00	5.30 to 7.00
CC(C)(CNC(=O)/C=C/c1ccc(N)nc1)Oc1ccc(F)c(-c2ccc(C(=O)N3CCOCC3)cc2)c1 [Compound 340, (E)-3-(6-aminopyridin-3-yl)-N-(2-(6-fluoro-4′-(morpholine-4-carbonyl)biphenyl-3-yloxy)-2-methylpropyl)acrylamide]	> 7.00	5.30 to 7.00	< 5.00
[2H]C([2H])(CNC(=O)/C=C/c1ccc(N)nc1)Oc1ccc(-c2ccc(C(=O)N3CCOCC3)cc2)cc1Cl [Compound 342, (E)-3-(6-aminopyridin-3-yl)-N-(2,2-dideutero-2-(3-chloro-4′-(morpholine-4-carbonyl)biphenyl-4-yloxy)ethyl)acrylamide]	> 7.00	> 7.00	5.30 to 7.00
[2H]C([2H])(CNC(=O)/C=C/c1ccc(N)nc1)Oc1ccc(F)c(-c2ccc(C(=O)N3CCOCC3)cc2)c1 [Compound 343, (E)-3-(6-aminopyridin-3-yl)-N-(2,2-dideutero-2-(6-fluoro-4′-(morpholine-4-carbonyl)biphenyl-3-yloxy)ethyl)acrylamide]	5.30 to 7.00	5.30 to 7.00	< 5.00
Nc1ccc(/C=C/C(=O)NCCOc2cc(Cl)cc(-c3ccc(C(=O)N4CCOCC4)cc3)c2)cn1 [Compound 344, (E)-3-(6-aminopyridin-3-yl)-N-(2-(5-chloro-4′-(morpholine-4-carbonyl)biphenyl-3-yloxy)ethyl)acrylamide]	> 7.00	> 7.00	5.30 to 7.00
Nc1ccc(/C=C/C(=O)NCCCOc2cc(Cl)cc(-c3ccc(C(=O)N4CCOCC4)cc3)c2)cn1 [Compound 345, (E)-3-(6-aminopyridin-3-yl)-N-(3-(5-chloro-4′-(morpholine-4-carbonyl)biphenyl-3-yloxy)propyl)acrylamide]	> 7.00	> 7.00	5.30 to 7.00
CC(C)(CNC(=O)/C=C/c1ccc(N)nc1)Oc1cc(Cl)cc(-c2ccc(C(=O)N3CCOCC3)cc2)c1 [Compound 347, (E)-3-(6-aminopyridin-3-yl)-N-(2-(5-chloro-4′-(morpholine-4-carbonyl)biphenyl-3-yloxy)-2-methylpropyl)acrylamide]	> 7.00	5.30 to 7.00	< 5.00
Nc1ccc(/C=C/C(=O)NCCCOc2ccc(-c3ccc(C(=O)N4CCOCC4)cc3)cc2Cl)cn1 [Compound 348, (E)-3-(6-aminopyridin-3-yl)-N-(3-(3-chloro-4′-(morpholine-4-carbonyl)biphenyl-4-yloxy)propyl)acrylamide]	> 7.00	> 7.00	5.30 to 7.00
Nc1ccc(/C=C/C(=O)NCC(F)(F)COc2ccc(-c3ccc(C(=O)N4CCOCC4)cc3)cc2Cl)cn1 [Compound 349, (E)-3-(6-aminopyridin-3-yl)-N-(3-(3-chloro-4′-(morpholine-4-carbonyl)biphenyl-4-yloxy)-2,2-difluoropropyl)acrylamide]	> 7.00	> 7.00	5.30 to 7.00
CC(C)(CNC(=O)/C=C/c1ccc(N)nc1)COc1ccc(-c2ccc(C(=O)N3CCOCC3)cc2)cc1Cl [Compound 350, (E)-3-(6-Aminopyridin-3-yl)-N-(3-((3-chloro-4′-(morpholine-4-carbonyl)-[1,1′-biphenyl]-4-yl)oxy)-2,2-dimethylpropyl)acrylamide]	> 7.00	5.30 to 7.00	5.30 to 7.00
Nc1ccc(/C=C/C(=O)NCCOc2ccc(-c3nnc(C(=O)N4CCOCC4)o3)cc2Cl)cn1 [Compound 351, (E)-3-(6-aminopyridin-3-yl)-N-(2-(2-chloro-4-(5-(morpholine-4-carbonyl)-1,3,4-oxadiazol-2-yl)phenoxy)ethyl)acrylamide]	5.30 to 7.00	5.30 to 7.00	< 5.00
CC(CCOc1cc(-c2ccc(C(=O)N3CCC(F)(F)CC3)cn2)cc(C(F)(F)F)c1)NC(=O)/C=C/c1ccc(N)nc1 (stereo not drawn) [Compound 352, (E)-3-(6-aminopyridin-3-yl)-N-(4-(3-(5-(4,4-difluoropiperidine-1-carbonyl)pyridin-2-yl)-5-(trifluoromethyl)phenoxy)butan-2-yl)acrylamide]	5.30 to 7.00	5.30 to 7.00	< 5.00
Nc1ccc(CNC(=O)/C=C/COc2ccc(-c3ccc(C(=O)N4CCC(F)(F)CC4)cn3)cc2C(F)(F)F)cn1 [Compound 353, (E)-N-((6-aminopyridin-3-yl)methyl)-4-(4-(5-(4,4-difluoropiperidine-1-carbonyl)pyridin-2-yl)-2-(trifluoromethyl)phenoxy)but-2-enamide]	5.30 to 7.00	5.30 to 7.00	< 5.00
Nc1ccc(CNC(=O)/C=C\COc2ccc(-c3ccc(C(=O)N4CCC(F)(F)CC4)cn3)cc2C(F)(F)F)cn1 [Compound 354, (Z)—N-((6-aminopyridin-3-yl)methyl)-4-(4-(5-(4,4-difluoropiperidine-1-carbonyl)pyridin-2-yl)-2-(trifluoromethyl)phenoxy)but-2-enamide]	< 5.00	< 5.00	< 5.00
